# Results taken from PubChem BioAssay (NCI).
#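 Results reflect a 48-hour exposure of cells in 96-well plates to compound at five concentrations. The concentration for full growth arrest is given as TGI.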
# Test system: 786-0 renal
# Assay: NCI anticancer screen, dose series, 48 h
row,Compound,TGI [µM]
1,CC1=CCC([C@@](C)(O)CCCC(C)(C)N=C=S)CC1 (some centres not stated),31.6
2,CCN1CN(c2ccccc2)C2(CCN(CC3COc4ccccc4O3)CC2)C1=O (configuration not stated),> 100
3,C=C1C(=O)CC2C1CC(=O)/C(C)=C/CCC(C)(O)C2O (configuration not stated),7.91
4,O=C1C=C/C(=N\N=C(c2ccccc2)c2ccccc2)O1,> 10
5,N[C@@H](Cc1ccccc1)C(=O)N1CCC[C@@H]1P(=O)(Oc1ccccc1)Oc1ccccc1,> 100
6,O=c1[nH][nH]c(=O)n1CCCCCCn1c(=O)[nH][nH]c1=O,> 100
7,C[C@H](CCC(=O)O)[C@H]1CC[C@H]2[C@@H]3C(=O)C[C@@H]4C[C@H](O)CC[C@]4(C)[C@H]3C[C@H](O)[C@]12C,> 100
8,CC(=O)NC1C(OCc2ccccc2)OC(CO)C(O)C1OCC(=O)N[C@@H](C)C(=O)N[C@H](CCC(=O)NCCCNc1c2ccccc2nc2cccc([N+](=O)[O-])c12)C(N)=O (some centres not stated),0.0795
9,COc1ccc(-c2nc(SCC(=O)NNC(=S)Nc3ccccc3)[nH]c2-c2ccc(OC)cc2)cc1,60.7
10,O=C(O)c1ccccc1CC(Cc1ccc2c(c1)CCC2)C(=O)O (configuration not stated),> 100
11,Cn1c(SCc2ccc(F)cc2)nnc1C12CC3CC(CC(C3)C1)C2,> 100
12,COC(=O)/C=C\C(C#N)(C#N)N=Cc1ccc(C)cc1,3.44
13,CC(c1ccccc1)N1CCN(C(C)c2ccccc2)CC1 (configuration not stated),> 100
14,CCCCCC#CCOC(=O)C(=[N+]=[N-])P(=O)(c1ccccc1)c1ccccc1,> 10
15,COc1ccc(C(=O)/C=C/c2ccc(OCCCOc3ccc(/C=C/C(=O)c4ccc(OC)cc4)cc3)cc2)cc1,> 100
16,COc1ccc(N2C(=O)CC(=O)N(NC(=O)C(C)Oc3ccccc3C)C2=S)cc1 (configuration not stated),> 100
17,COc1cc(OC)cc(C(=O)CC(=O)c2cc(OC)cc(OC)c2)c1,> 100
18,COc1ccc(C2c3cn[nH]c3CC3CCCCC32)cc1 (configuration not stated),33.2
19,O=C1OC(C2Cc3ccc4ccccc4c3C2=O)c2ccccc21 (configuration not stated),> 100
20,C/C(=N\N=C1/C(=O)OC(c2ccccc2)=C1C(=O)c1ccccc1)c1ccc([N+](=O)[O-])cc1,> 100
21,O=C(O)[C@H]1CCCN1CP(=O)(O)CN1CCC[C@@H]1C(=O)O,> 100

row,Compound,TGI [µM]
1,O=S(=O)(O)C(CO)c1ccccc1 (configuration not stated) (tested in a mixture with another compound),> 100
2,O=C1c2ccccc2C(=O)N1n1c(Cc2ccc([N+](=O)[O-])cc2)n[nH]c1=O,> 100
3,COc1ccc(C2OC(c3ccncc3)=NN2C)cc1F (configuration not stated),> 100
4,O=C(/C=C/c1ccccc1)Oc1ccc(C(=O)/C=C/c2ccccc2)cc1,13.7
5,COC(=O)C(Cc1ccc2c(c1)CCC2)Cc1ccc2c(c1)CCC2,> 100
6,NS(=O)(=O)c1ccc(NC(=S)/N=C/C2=C(O)c3ccccc3C2=O)cc1,> 100
7,Cc1nc(C)c(C(=O)NNC(=O)C[N+](C)(C)C)cc1C(=O)NNC(=O)C[N+](C)(C)C,> 100
8,CNc1cc2c(c3ccccc13)C(CCl)CN2C(=O)c1cc2cc(OC)c(OC)c(OC)c2[nH]1 (configuration not stated),0.00346
9,O=C(O)CN1CCN2CCCCCN(CC1)CCN(CC(=O)O)CC2,> 100
10,C=C(C(=O)OCC)C(=O)OCC,> 100
11,Cc1ccc(S(=O)(=O)n2c3c(c4ccccc42)CCN2C[C@H]([C@H](C)Br)CC[C@@H]32)cc1,> 100
12,CC(C)c1cc2c(c(O)c1O)[C@@]1(C(=O)O)CCCC(C)(C)[C@@H]1CC2,> 100
13,COC1=CC(=O)c2c(c(-c3nc(C)cs3)cn2C)C1=O,> 100
14,Cc1c(O)nc(-n2[nH]c3c(c2=O)CCCC3)[nH]c1=O,> 100
15,CCCNc1ncnc2c1ncn2C,> 100
16,CCOS(C)(=O)=O,> 100
17,CC(C)SC(=S)Sc1c(Cl)c(Cl)nc(Cl)c1Cl,5.54
18,O=C(O)CN1CCNCCN(CC(=O)O)CCN(CC(=O)O)CCNCC1,> 100
19,CC(NC(=O)Cc1ccccc1)NC(=O)C(C)C(=O)Nc1ccccc1 (configuration not stated),> 100
20,CCCCCCCCCCCC[S+](C)C,13.3

# Test system: A498 renal
# Assay: NCI anticancer screen, dose series, 48 h
row,Compound,TGI [µM]
1,CC1=CCC([C@@](C)(O)CCCC(C)(C)N=C=S)CC1 (some centres not stated),28.7
2,CCN1CN(c2ccccc2)C2(CCN(CC3COc4ccccc4O3)CC2)C1=O (configuration not stated),72.5
3,C=C1C(=O)CC2C1CC(=O)/C(C)=C/CCC(C)(O)C2O (configuration not stated),48.4
4,N[C@@H](Cc1ccccc1)C(=O)N1CCC[C@@H]1P(=O)(Oc1ccccc1)Oc1ccccc1,> 100
5,O=c1[nH][nH]c(=O)n1CCCCCCn1c(=O)[nH][nH]c1=O,> 100
6,C[C@H](CCC(=O)O)[C@H]1CC[C@H]2[C@@H]3C(=O)C[C@@H]4C[C@H](O)CC[C@]4(C)[C@H]3C[C@H](O)[C@]12C,> 100
7,CC(=O)NC1C(OCc2ccccc2)OC(CO)C(O)C1OCC(=O)N[C@@H](C)C(=O)N[C@H](CCC(=O)NCCCNc1c2ccccc2nc2cccc([N+](=O)[O-])c12)C(N)=O (some centres not stated),0.944
8,COc1ccc(-c2nc(SCC(=O)NNC(=S)Nc3ccccc3)[nH]c2-c2ccc(OC)cc2)cc1,47.9
9,O=C(O)c1ccccc1CC(Cc1ccc2c(c1)CCC2)C(=O)O (configuration not stated),> 100
10,Cn1c(SCc2ccc(F)cc2)nnc1C12CC3CC(CC(C3)C1)C2,48.4
11,COC(=O)/C=C\C(C#N)(C#N)N=Cc1ccc(C)cc1,31.8
